We go through 15 compounds from patent publication EP4653451A1, “POLYPEPTIDE COMPOUND AND USE THEREOF” (Chengdu New Radiomedicine Technology Co., Ltd., priority 2023, dated 2024).

The target in assay [1] is T1, human recombinant FAP protein (Homo sapiens, UniProt Q12884).
T1 construct: purchased Acrobiosystems FAP-H82Q6
T1 sequence (Q12884 1-760): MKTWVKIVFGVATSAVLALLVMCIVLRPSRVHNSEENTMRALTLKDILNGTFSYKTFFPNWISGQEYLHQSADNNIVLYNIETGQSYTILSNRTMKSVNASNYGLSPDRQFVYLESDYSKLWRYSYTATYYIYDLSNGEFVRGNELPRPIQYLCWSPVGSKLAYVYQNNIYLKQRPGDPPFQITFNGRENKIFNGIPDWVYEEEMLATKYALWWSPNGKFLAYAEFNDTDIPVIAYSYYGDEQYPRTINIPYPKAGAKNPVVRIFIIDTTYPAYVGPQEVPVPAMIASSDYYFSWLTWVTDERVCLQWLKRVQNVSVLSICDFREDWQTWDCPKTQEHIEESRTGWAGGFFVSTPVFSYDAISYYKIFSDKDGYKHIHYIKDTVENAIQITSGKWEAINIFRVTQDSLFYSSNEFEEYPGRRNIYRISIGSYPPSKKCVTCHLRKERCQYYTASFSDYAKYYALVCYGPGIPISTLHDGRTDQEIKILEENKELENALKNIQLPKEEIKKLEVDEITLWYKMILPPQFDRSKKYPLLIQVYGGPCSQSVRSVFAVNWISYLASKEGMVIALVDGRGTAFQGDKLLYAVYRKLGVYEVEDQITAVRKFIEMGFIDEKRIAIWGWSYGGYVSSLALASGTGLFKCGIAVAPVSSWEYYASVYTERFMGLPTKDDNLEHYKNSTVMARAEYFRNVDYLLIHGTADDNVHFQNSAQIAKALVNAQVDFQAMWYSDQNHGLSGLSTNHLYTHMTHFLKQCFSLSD
The assay can be described thus: Inhibitory activity against FAP protease activity (Z-Gly-Pro-AMC fluorescence). Type of assay: biochemical. The method, then: The human recombinant FAP protein (Acrobiosystems, FAP-H82Q6) was diluted to a 125 pM FAP working solution with an assay buffer (50 mM Tris-HCl, 1 M NaCl, 1 mg/mL BSA, pH 7.5), and the FAP substrate (Z-Gly-Pro-AMC (LEONBIO, 68542-93-8)) was diluted to a 150 µM substrate working solution with the assay buffer. 40 µl of FAP working solution and 20 µl of compounds at different concentrations (4-fold dilution) were taken, then 40 µl of substrate working solution was added, and the mixture was uniformly mixed on a shaker at room temperature for 1 min. The uniformly mixed mixture was reacted at room temperature in the dark for 90 min. The fluorescence value Ex = 380 nm/Em = 460 nm was read by using a microplate reader. The original data was saved, and the IC50 value of the compound was obtained by using the original data or the Inhibition% via calculation and analyzing the data with Graphpad PRISM.

Assay [2] concerns the target T2, human recombinant DPP4 protein (Homo sapiens, UniProt P27487).
T2 construct: purchased Acrobiosystems DP4-H5211
As to the kind of experiment: Inhibitory activity against DPP4 protease activity (H-Gly-Pro-AMC fluorescence). Type of assay: biochemical. As to conditions: 125 pM DPP4 working solution, 90 min at room temperature. As for the experimental part:
The human recombinant DPP4 protein (Acrobiosystems, DP4-H5211) was formulated into a 125 pM working solution with an assay buffer (20 mM Tris-HCl, 100 mM NaCl), and the DPP4 substrate (H-Gly-Pro-AMC.HBr (LEONBIO, 115035-46-6)) was diluted to a 250 µM DPP4 substrate working solution with the assay buffer. 40 µl of DPP4 working solution and 20 µl of compounds at different concentrations (4-fold dilution) were taken, then 40 µl of DPP4 substrate working solution was added, and the mixture was uniformly mixed on a shaker at room temperature for 1 min. The uniformly mixed mixture was reacted at room temperature in the dark for 90 min. Reading was made by microplate reader at excitation and emission wavelengths of 380 nm and 460 nm. The original data was saved, and the IC50 value of the compound was obtained by analyzing the data with Graphpad PRISM.

Setting [3] is: 125 pM FAP working solution, 90 min at room temperature, read-out: FAP IC50.

As usually defined, the IC50 is the concentration that gives 50% inhibition.

Counter-ions that a name gives are not always drawn. Like-named read-outs stand apart in the source and are kept apart here. Numbered stars: 1 amine (or outer) side, 2 acyl side, 3 side chain; on linkers, the order of the positions; unused ones are H or OH. Bridge positions count the residues as written; N and C are the ends. Square brackets hold non-standard residues; d marks the D form. Peptide text beside a SMILES is read from it. * marks the point of attachment. TBMB(SCH2CH2NH-DOTA) = O=C(O)CN1CCN(CC(=O)O)CCN(CC(=O)NCCSCc2cc(C[*:1])cc(C[*:2])c2)CCN(CC(=O)O)CC1; X4 = CC(=O)NC[C@H](CSCc1cccc(C[*:1])c1)N[*:2]; 1Nal = N[C@@H](Cc1cccc2ccccc12)C(=O)O; d1Nal = N[C@H](Cc1cccc2ccccc12)C(=O)O; mXylylene = c1cc(C[*:1])cc(C[*:2])c1; Cha = N[C@@H](CC1CCCCC1)C(=O)O; d(β3hC) = N[C@H](CS)CC(=O)O; β3hC = N[C@@H](CS)CC(=O)O; Hexanoyl = CCCCCC(=O)*; NHcPent = C1CCC(N*)C1; NHBn = c1ccc(CN*)cc1; NHPentyl = CCCCCN*

T2 sequence (P27487 whole entry): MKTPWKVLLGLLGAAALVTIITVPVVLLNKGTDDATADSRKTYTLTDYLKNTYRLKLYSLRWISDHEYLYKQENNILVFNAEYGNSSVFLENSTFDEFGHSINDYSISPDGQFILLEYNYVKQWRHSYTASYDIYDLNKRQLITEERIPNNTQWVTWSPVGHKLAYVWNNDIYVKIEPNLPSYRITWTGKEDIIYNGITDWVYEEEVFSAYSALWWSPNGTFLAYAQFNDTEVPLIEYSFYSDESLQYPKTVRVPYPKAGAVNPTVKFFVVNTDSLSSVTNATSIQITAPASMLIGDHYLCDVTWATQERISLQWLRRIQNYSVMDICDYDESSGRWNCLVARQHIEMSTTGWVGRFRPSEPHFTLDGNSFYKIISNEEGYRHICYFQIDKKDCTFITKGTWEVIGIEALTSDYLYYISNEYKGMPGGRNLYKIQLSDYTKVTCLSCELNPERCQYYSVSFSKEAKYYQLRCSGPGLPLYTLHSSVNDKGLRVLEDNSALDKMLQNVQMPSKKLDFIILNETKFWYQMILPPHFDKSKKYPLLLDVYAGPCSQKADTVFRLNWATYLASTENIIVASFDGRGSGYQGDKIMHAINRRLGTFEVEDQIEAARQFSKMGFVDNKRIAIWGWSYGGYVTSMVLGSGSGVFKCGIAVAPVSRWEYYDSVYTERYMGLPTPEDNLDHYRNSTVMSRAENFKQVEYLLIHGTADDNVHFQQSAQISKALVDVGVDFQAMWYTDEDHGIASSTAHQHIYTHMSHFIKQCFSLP

For `CCCCCC(=O)N[C@H]1CSCc2cccc(c2)CSC[C@@H](CC(=O)N[C@@H](CC(=O)O)C(N)=O)NC(=O)[C@H](Cc2ccccc2)NC(=O)[C@H](CCC(N)=O)NC(=O)[C@H]([C@@H](C)O)NC(=O)[C@@H]2CCCN2C(=O)[C@@H]2CCCN2C1=O` [Compound 1, Hex-Cys-Pro-Pro-Thr-Gln-Phe-beta-HomoCys-Asp-NH2 (Cys bridge DBMB) trifluoroacetate] (Hexanoyl-CPPTQF[β3hC]D-NH2; linker 1-7 via mXylylene), the IC50 in assay [1] is 2.91 nM; in assay [2] it was above 10000 nM.

`CCCCCC(=O)N[C@H]1CSCc2cccc(c2)CSC[C@@H](CC(=O)O)NC(=O)[C@H](Cc2ccccc2)NC(=O)[C@H](CCC(N)=O)NC(=O)[C@H]([C@@H](C)O)NC(=O)[C@@H]2CCCN2C(=O)[C@@H]2CCCN2C1=O` [Compound 2, Hex-Cys-Pro-Pro-Thr-Gln-Phe-beta-HomoCys-OH (Cys bridge DBMB) trifluoroacetate]: the half-inhibitory concentration (IC50) in assay [1] was 4.24 nM; in assay [2], above 10000 nM.

Regarding `CCCCCC(=O)N[C@H]1CSCc2cccc(c2)CSC[C@@H](C(=O)O)NC(=O)[C@H](CC2CCCCC2)NC(=O)[C@H](CCC(N)=O)NC(=O)[C@H]([C@@H](C)O)NC(=O)[C@@H]2CCCN2C(=O)[C@@H]2CCCN2C1=O` [Compound 3, Hex-Cys-Pro-Pro-Thr-Gln-Cha-Cys-OH (Cys bridge DBMB) trifluoroacetate] (Hexanoyl-CPPTQ[Cha]C-OH; linker 1-7 via mXylylene), the IC50 in assay [1] was 25.1 nM; in assay [2], above 10000 nM.

As for `CCCCCC(=O)N[C@H]1CSCc2cccc(c2)CSC[C@@H](C(=O)O)NC(=O)[C@H](Cc2ccccc2)NC(=O)[C@H](CCC(N)=O)NC(=O)[C@H]([C@@H](C)O)NC(=O)[C@@H]2CCCN2C(=O)[C@@H]2CCCN2C1=O` [Compound 3BP-4186, reference compound], the figures for the IC50 in assay [1] and in assay [2] were 98.8 nM and above 10000 nM, respectively.

As for `CCCCCC(=O)N[C@H]1CSCc2cccc(c2)CSC[C@@H](CNC(C)=O)NC(=O)[C@H](Cc2ccccc2)NC(=O)[C@H](CCC(N)=O)NC(=O)[C@H]([C@@H](C)O)NC(=O)[C@@H]2CCCN2C(=O)[C@@H]2CCCN2C1=O` [Compound 5, Hex-Cys-Pro-Pro-Thr-Gln-Phe-Cys-CH2NHAc (Cys bridge DBMB) trifluoroacetate] (Hexanoyl-CPPTQF; linker 1-C via X4), the IC50 in assay [1] was 1.8 nM; in assay [2], above 10000 nM.

With `CCCCCC(=O)N[C@H]1CSCc2cccc(c2F)CSC[C@@H](C(=O)O)NC(=O)[C@H](Cc2ccccc2)NC(=O)[C@H](CCC(N)=O)NC(=O)[C@H]([C@@H](C)O)NC(=O)[C@@H]2CCCN2C(=O)[C@@H]2CCCN2C1=O` [Compound 6, Hex-Cys-Pro-Pro-Thr-Gln-Phe-Cys-OH (Cys bridge 2,6-bis(bromomethyl)fluorobenzene) trifluoroacetate], the IC50 in assay [1] (setting [3]) was 7.25 nM; in assay [2], above 10000 nM.

Turning to `CCCCCC(=O)N[C@H]1CSCc2nc(CSCCNC(=O)CN3CCN(CC(=O)O)CCN(CC(=O)O)CCN(CC(=O)O)CC3)nc(n2)CSC[C@@H](C(=O)O)NC(=O)[C@H](Cc2ccccc2)NC(=O)[C@H](CCC(N)=O)NC(=O)[C@H]([C@@H](C)O)NC(=O)[C@@H]2CCCN2C(=O)[C@@H]2CCCN2C1=O` [Compound 7, Hex-Cys-Pro-Pro-Thr-Gln-Phe-Cys-OH (Cys bridge 2,4,6-tribromomethyl-1,3,5-triazine (DOTA-AET)) trifluoroacetate], the half-inhibitory concentration (IC50) in assay [1] (setting [3]) was 1.53 nM; in assay [2] it was above 10000 nM.

With `CCCCCC(=O)N[C@H]1CSCc2cc(CSCCNC(=O)CN3CCN(CC(=O)O)CCN(CC(=O)O)CCN(CC(=O)O)CC3)cc(c2)CSC[C@@H](CC(=O)O)NC(=O)[C@H](Cc2ccccc2)NC(=O)[C@H](CCC(N)=O)NC(=O)[C@H]([C@@H](C)O)NC(=O)[C@@H]2CCCN2C(=O)[C@@H]2CCCN2C1=O` [Compound 8, Hex-Cys-Pro-Pro-Thr-Gln-Phe-beta-HomoCys (Cys bridge TBMB (DOTA-AET)) trifluoroacetate], the results for the IC50 in assay [1] and in assay [2] were 1.18 nM and above 10000 nM, respectively.

For `CCCCCC(=O)N[C@H]1CSCc2cc(CSCCNC(=O)CN3CCN(CC(=O)O)CCN(CC(=O)O)CCN(CC(=O)O)CC3)cc(c2)CSC[C@@H](CNC(=O)CCc2ccc(C(F)(F)F)cc2)NC(=O)[C@H](Cc2cccc3ccccc23)NC(=O)[C@H](CCC(N)=O)NC(=O)[C@H]([C@@H](C)O)NC(=O)[C@@H]2CCCN2C(=O)[C@@H]2CCCN2C1=O` [Compound 19, Hex-Cys-Pro-Pro-Thr-Gln-1Nal-Cys-CH2NH-3-(4-trifluoromethylphenyl)propanoic acid (Cys bridge TBMB (DOTA-AET))], the 50% inhibitory concentration (IC50) was 0.98 nM in assay [1] (setting [3]) and above 10000 nM in assay [2].

With `CCCCCC(=O)N[C@H]1CSCc2cccc(c2)CSC[C@@H](CC(N)=O)NC(=O)[C@H](Cc2cccc3ccccc23)NC(=O)[C@H](CCC(N)=O)NC(=O)[C@H]([C@@H](C)O)NC(=O)[C@@H]2CCCN2C(=O)[C@@H]2CCCN2C1=O` [Compound 31] (Hexanoyl-CPPTQ[1Nal][β3hC]-NH2; linker 1-7 via mXylylene), the IC50 is 1.61 nM in assay [1] (setting [3]) and above 10000 nM in assay [2].

As for `CCCCCNC(=O)C[C@@H]1CSCc2cccc(c2)CSC[C@H](NC(=O)CCCCC)C(=O)N2CCC[C@H]2C(=O)N2CCC[C@H]2C(=O)N[C@@H]([C@@H](C)O)C(=O)N[C@@H](CCC(N)=O)C(=O)N[C@@H](Cc2cccc3ccccc23)C(=O)N1` [Compound 32] (Hexanoyl-CPPTQ[1Nal][β3hC]-NHPentyl; linker 1-7 via mXylylene), the IC50 in assay [1] (setting [3]) was 3.35 nM; in assay [2] it was above 10000 nM.

Consider `CCCCCC(=O)N[C@H]1CSCc2cccc(c2)CSC[C@@H](CC(=O)NCc2ccccc2)NC(=O)[C@H](Cc2cccc3ccccc23)NC(=O)[C@H](CCC(N)=O)NC(=O)[C@H]([C@@H](C)O)NC(=O)[C@@H]2CCCN2C(=O)[C@@H]2CCCN2C1=O` [Compound 33] (Hexanoyl-CPPTQ[1Nal][β3hC]-NHBn; linker 1-7 via mXylylene), for which the IC50 was 2.9 nM in assay [1] (setting [3]) and above 10000 nM in assay [2].

As to `CCCCCC(=O)N[C@H]1CSCc2cccc(c2)CSC[C@@H](CC(=O)NC2CCCC2)NC(=O)[C@H](Cc2cccc3ccccc23)NC(=O)[C@H](CCC(N)=O)NC(=O)[C@H]([C@@H](C)O)NC(=O)[C@@H]2CCCN2C(=O)[C@@H]2CCCN2C1=O` [Compound 34] (Hexanoyl-CPPTQ[1Nal][β3hC]-NHcPent; linker 1-7 via mXylylene), the half-inhibitory concentration (IC50) in assay [1] (setting [3]) is 5.92 nM; in assay [2], above 10000 nM.

As to `CCCCCC(=O)N[C@H]1CSCc2cc(CSCCNC(=O)CN3CCN(CC(=O)O)CCN(CC(=O)O)CCN(CC(=O)O)CC3)cc(c2)CSC[C@@H](CC(=O)O)NC(=O)[C@@H](Cc2cccc3ccccc23)NC(=O)[C@H](CCC(N)=O)NC(=O)[C@H]([C@@H](C)O)NC(=O)[C@@H]2CCCN2C(=O)[C@@H]2CCCN2C1=O` [Compound 83, Hexanoyl-(Cys(tMeBn(DOTA-AET))-Pro-Pro-Thr-Gln-D-1Nal-betahomoCys)-OH] (Hexanoyl-CPPTQ[d1Nal][β3hC]-OH; linker 1-7 via TBMB(SCH2CH2NH-DOTA)), the IC50 in assay [1] (setting [3]) came to 1040 nM.

Turning to `CCCCCC(=O)N[C@H]1CSCc2cc(CSCCNC(=O)CN3CCN(CC(=O)O)CCN(CC(=O)O)CCN(CC(=O)O)CC3)cc(c2)CSC[C@H](CC(=O)O)NC(=O)[C@H](Cc2cccc3ccccc23)NC(=O)[C@H](CCC(N)=O)NC(=O)[C@H]([C@@H](C)O)NC(=O)[C@@H]2CCCN2C(=O)[C@@H]2CCCN2C1=O` [Compound 84, Hexanoyl-(Cys(tMeBn(DOTA-AET))-Pro-Pro-Thr-Gln-1Nal-D-betahomoCys)-OH] (Hexanoyl-CPPTQ[1Nal][d(β3hC)]-OH; linker 1-7 via TBMB(SCH2CH2NH-DOTA)), in assay [1] (setting [3]), the IC50 is 6.7 nM. Further, the “inhibitory activity against FAP protease activity” value in assay [1] (in words) is listed as “good inhibitory activity”.
